This note sets out measurements from ChEMBL document CHEMBL4732213, “Discovery of novel ceramide analogs with favorable pharmacokinetic properties and combination with AKT inhibitor against colon cancer” (Eur J Med Chem, 2021).

SMILES strings stand for the structures. Active and inactive are the calls of the source. No cut-off for these calls is given here.

Data set [1] relates to HT-29. As to the kind of experiment: Antiproliferative activity against human HT-29 cells measured after 72 hrs by sulforhodamine B assay. Type of data set: functional, cell-based. Particulars: HT-29, 72 h. For orientation: The SRB assay estimates cell density from bound dye.
Data set [2] concerns HT-29. Put plainly: Induction of apoptosis in human HT29 cells at 7.5 uM after 48 hrs by Annexin-V-FITC/PI staining based flow cytometric analysis. The class given is functional, cell-based. For orientation: Flow cytometry measures light scatter and fluorescence of single cells or particles in a stream.
For data set [3], the system named is HT-29. Put plainly: Induction of ROS generation in human HT29 cells at 10 uM after 16 hrs by flow cytometric analysis. The class given is functional, cell-based.
Data set [4] concerns HT-29. Put plainly: Induction of apoptosis in human HT29 cells assessed as inhibition of AKT phosphorylation at 10 uM after 48 hrs by Western blotting analysis. The class given is functional, cell-based. (In general: Immunoblotting shows a protein as a band on a membrane.)
For data set [5], the system named is HT-29. Put plainly: Induction of cell cycle arrest in human HT29 cells assessed as accumulation at G0/G1 phase at 10 uM after 24 hrs by PI staining based flow cytometry analysis. Type of data set: functional.
For data set [6], the system named is HT-29. As to the kind of experiment: Downregulation of c-Myc protein expression level in human HT29 cells at 10 uM incubated for 24 hrs by Western blotting analysis. The class given is functional, cell-based.
Data set [7] has as its system HT-29. As to the kind of experiment: Upregulation of p21 protein expression in human HT29 cells at 10 uM incubated for 24 hrs by Western blotting analysis. Type of data set: functional, cell-based.
For data set [8], the system named is HT-29. As to the kind of experiment: Down regulation of p-RB expression in human HT29 cells at 10 uM incubated for 24 hrs by Western blotting analysis. Type of data set: functional, cell-based.
Data set [9] relates to HT-29. Put plainly: Antitumor activity against human HT-29 cells xenografted in BALB/c nude mouse assessed as tumor growth inhibition at 50 mg/kg, po Q2D measured every 3 days by electronic caliper method. Type of data set: functional. Particulars: HT-29, po, 72 h, time 3 day, read-out: TGI.
A short description of data set [10]: Toxicity in BALB/c nude mouse xenografted with human HT-29 cells assessed as effect on body weight at 50 mg/kg, po measured every 3 day by electronic caliper method. The class given is organism-based. The note with it: in vivo, 72 h.
The nature of data set [11]: Tmax in BALB/c mouse at 50 mg/kg, ip. Type of data set: ADME, organism-based. Particulars: in vivo.
Data set [12] can be described thus: Cmax in BALB/c mouse at 50 mg/kg, ip. Type of data set: ADME, organism-based. Also on record: route intraperitoneal, dose 50 mg/kg. Particulars: in vivo.
The nature of data set [13]: AUC(0 to t) in BALB/c mouse at 50 mg/kg, ip. The class given is ADME, organism-based. The arrangement: dose 50 mg/kg. Particulars: in vivo.
Data set [14] can be described thus: AUC(0 to t) in BALB/c mouse at 10 mg/kg, iv. Type of data set: ADME, organism-based. The arrangement: dose 10 mg/kg. The note with it: in vivo.
Data set [15] can be described thus: AUC(0 to infinity) in BALB/c mouse at 50 mg/kg, ip. The class given is ADME, organism-based. Also on record: time infinity, route intraperitoneal, dose 50 mg/kg. Particulars: in vivo.
Data set [16] is described as follows: AUC(0 to infinity) in BALB/c mouse at 10 mg/kg, iv. Type of data set: ADME, organism-based. Also on record: route intravenous, time infinity, dose 10 mg/kg. Particulars: in vivo.
Data set [17] in a line: Half life in BALB/c mouse at 50 mg/kg, ip. The class given is ADME, organism-based. Particulars: in vivo.
Data set [18] in a line: Half life in BALB/c mouse at 10 mg/kg, iv. The class given is ADME, organism-based. The note with it: in vivo.

In general, IC50 refers to the concentration that inhibits the measured activity by half. In the data set with HT-29 [1], `CCCCCCCCCCCCCC(=O)NC(CO)(CO)CCc1ccc(CCCCCCCC)c2ccccc12` displayed an IC50 above 80 µM.
Still for that read-out and setting: the result for `C/C=C/C(=O)NC(CO)(CO)CCc1ccc(OCCCCCCC)c2ccccc12` reads 36.4 µM.
Same read-out and setting: the result for `CCCCCCCCc1ccc(CCC(CO)(CO)NC(=O)C(C)CC)c2ccccc12` (configuration not stated) reads 25.6 µM; that for `CCCCCCCCc1ccc(CCC(CO)(CO)NC(C)=O)c2ccccc12`, 36.5 µM.
On to `CCCCCCCCc1ccc(CCC(CO)(CO)NC(=O)CCCCC)c2ccccc12`, for which, in the data set on HT-29 [1], the midpoint of inhibition, the IC50, lay at 20.3 µM.
In the data set on HT-29 [1], `CC(=O)NC(CO)(CO)CCc1ccc(O)c2ccccc12` came in with an IC50 above 80 µM.
The same measure, in the same setting: as for `CCCCCCCCc1ccc(CCC(CO)(CO)NC(=O)CCCCCCC)c2ccccc12`, the figure is 22 µM; as for `CCCCCCCOc1ccc(CCC(CO)(CO)NC(=O)CCCCC)c2ccccc12`, 21.9 µM; as for `CCCCCCCCc1ccc(CCC(CO)(CO)NC(=O)CCC)c2ccccc12`, 26.4 µM.
`CCCCCCCOc1ccc(CCC(CO)(CO)NC(=O)OCCCC)c2ccccc12` came in with an IC50 in the data set on HT-29 [1] of 22.4 µM.
On the same count and under the same terms, the result for `COc1ccc(CCC(CO)(CO)NC(C)=O)c2ccccc12` reads above 80 µM; that for `CCCCCCCCc1ccc(C(O)CC(CO)(CO)NC(C)=O)c2ccccc12` (configuration not stated), 77.9 µM.
Regarding `NC1(c2ccc(-c3nc4ccn5c(=O)[nH]nc5c4cc3-c3ccccc3)cc2)CCC1` [MK-2206], the result with HT-29 [2], in the data set with HT-29 [6], with HT-29 [7] and in the data set on HT-29 [8] was inactive. Besides, the result in the data set with HT-29 [3], in the data set with HT-29 [4] and in the data set on HT-29 [5] was Active. Also, the inhibition in vivo at 50 mg/kg with HT-29 [9] is 30.9%. The Activity entry in data set [10] was “Non-Toxic”.
`CCCCc1ccc(COc2ccc(CCC(CO)(CO)NC(C)=O)c3ccccc23)cc1`: the IC50 with HT-29 [1] amounted to 27.1 µM.
Usually Tmax stands for the time at which the peak concentration occurs. In general, Cmax refers to the peak of the concentration-time curve. The term AUC(0-t) denotes exposure summed from dosing to a finite time, without extrapolation to infinity. Read a high AUC(0-t) as more exposure. Usually AUC(0-inf) stands for total exposure, with the tail of the curve extrapolated. Broadly, the half-life is the time in which the quantity being followed falls by half. As for `CCCCCCCCCCCCC/C=C/[C@@H](O)[C@H](CO)NC(C)=O`, in the data set on HT-29 [1], the IC50 stood at 25.9 µM. The Tmax in data set [11] is 0.417 h. The same molecule returned a Cmax in [12] of 2.74 µg/mL. The AUC(0-t) stood at 4.06 µg·h/mL in data set [13] and 1.62 µg·h/mL in data set [14]. Moreover, the AUC(0-inf) was found to be 4.09 µg·h/mL in data set [15] and 1.63 µg·h/mL in data set [16]. Besides, the half-life in data set [17] was 3.99 h; in data set [18], 5.08 h.
In the case of `CCCCCCCOc1ccc(CCC(CO)(CO)NC(=O)OC(C)(C)C)c2ccccc12`, the IC50 in the data set on HT-29 [1] is 21.4 µM.
The same measure, in the same setting: the result for `CCCCCCCOc1ccc(CCC(CO)(CO)NC(=O)OCc2ccccc2)c2ccccc12` reads 60.5 µM; that for `CCCCCCCCc1ccc(CCC(CO)(CO)NC(=O)c2ccccc2)c2ccccc12`, 23 µM; that for `CCCCCCCOc1ccc(CCC(CO)(CO)NC(=O)CCCCCCC)c2ccccc12`, 18.8 µM.
Consider `CCCCCCCCCC(=O)NC(CO)(CO)CCc1ccc(CCCCCCCC)c2ccccc12`, for which the concentration for half-maximal inhibition (IC50) with HT-29 [1] is above 80 µM.
Regarding `CCCCc1ccc(Oc2ccc(CCC(CO)(CO)NC(C)=O)c3ccccc23)cc1`, the IC50 in the data set on HT-29 [1] is above 80 µM.
